According to the supplement of paper PMC10331698:
± gives the standard deviation of the averaged measurements.

How the values were obtained:
Test in all cases: LOEC (log10 uM (lowest observed effect concentration))
[1] = compound: O=C(O)C(F)(OC(F)(F)C(F)(F)C(F)(F)F)C(F)(F)F [Ammonium perfluoro-2-methyl-3-oxahexanoate]
Procedure: (§1)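 BioMAP Diversity Plus panel in human primary cell co-cultures, 4 concentrations in duplicate blinded samples. Responses are log10 fold change versus DMSO control, processed with tcpl v2.1.0. A hit is called when responses at any concentration exceed the cutoff (the larger of 3*bmad or log10(1.2)); the lowest observed effect concentration (modl_ga, log10 uM) is reported for hits.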

[2] = compound: CCNS(=O)(=O)C(F)(F)C(F)(F)C(F)(F)C(F)(F)C(F)(F)C(F)(F)C(F)(F)C(F)(F)F [N-Ethylperfluorooctanesulfonamide]
Procedure: as §1

[3] = compound: NS(=O)(=O)C(F)(F)C(F)(F)C(F)(F)C(F)(F)C(F)(F)C(F)(F)C(F)(F)C(F)(F)F [Perfluorooctanesulfonamide]
Procedure: as §1

[4] = compound: O=C(O)C(F)(F)OC(F)(F)C(F)(F)OC(F)(F)C(F)(F)OC(F)(F)C(F)(F)C(F)(F)C(F)(F)F [Perfluoro-3,6,9-trioxatridecanoic acid]
Procedure: as §1

[5] = compound: O=C(O)C(F)(F)C(F)(F)C(F)(F)C(F)(F)C(F)(F)C(F)(F)C(F)(F)C(F)(F)F [Perfluorononanoic acid]
Procedure: as §1

[6] = compound: OCC(F)(F)OC(F)(F)C(F)(F)OC(F)(F)C(F)(F)OC(F)(F)CO [1H,1H,11H,11H-Perfluorotetraethylene glycol]
Procedure: as §1

[7] = compound: O=C(O)C(F)(F)C(F)(F)C(F)(F)C(F)(F)C(F)(F)C(F)(F)C(F)(F)C(F)(F)C(F)(F)C(F)(F)F [Perfluoroundecanoic acid]
Procedure: as §1

[8] = compound: O=C(O)C=C(C(F)(F)F)C(F)(F)F [3,3-Bis(trifluoromethyl)-2-propenoic acid]
Procedure: as §1

[9] = compound: O=S(=O)(O)CCC(F)(F)C(F)(F)C(F)(F)C(F)(F)C(F)(F)C(F)(F)C(F)(F)C(F)(F)F [8:2 Fluorotelomer sulfonic acid]
Procedure: as §1

[10] = compound: C[C@@H]1C[C@H]2[C@@H]3CCC4=CC(=O)C=C[C@]4(C)[C@@]3(F)[C@@H](O)C[C@]2(C)[C@@]1(O)C(=O)COP(=O)(O)O [Dexamethasone sodium phosphate]
Procedure: as §1

[11] = compound: O=S(=O)(O)C(F)(F)C(F)(F)C(F)(F)C(F)(F)C(F)(F)C(F)(F)C(F)(F)F [Perfluoroheptanesulfonic acid]
Procedure: as §1

[12] = compound: OCCC(F)(F)C(F)(F)C(F)(F)C(F)(F)F [4:2 Fluorotelomer alcohol]
Procedure: as §1

[13] = compound: O=S(=O)(O)C(F)(F)C(F)(F)OC(F)(F)C(F)(F)F [Perfluoro(2-ethoxyethane)sulfonic acid]
Procedure: as §1

[14] = compound: O=C(O)CCC(F)(C(F)(F)F)C(F)(F)F [4,4-bis(Trifluoromethyl)-4-fluoropropanoic acid]
Procedure: as §1

[15] = compound: OCC(F)(F)C(F)(F)C(F)(F)C(F)(F)C(F)(F)C(F)(F)CO [1H,1H,8H,8H-Perfluorooctane-1,8-diol]
Procedure: as §1

Test System | LOEC (log10 uM) [2] | LOEC (log10 uM) [3] | LOEC (log10 uM) [4] | LOEC (log10 uM) [5] | LOEC (log10 uM) [6] | LOEC (log10 uM) [7] | LOEC (log10 uM) [8] | LOEC (log10 uM) [10] | also measured
3C IL8 up |  |  |  |  |  |  |  |  | LOEC (log10 uM) [1]: 1.78
3C Proliferation down | 1.78 | 1.3 | 1.3 | 1.78 | 1.54 ± 0.34 | 0.845 |  |  | 
4H Eotaxin3 down | 1.54 ± 0.34 | 1.78 | 1.78 | 1.78 |  |  | 1.78 |  | LOEC (log10 uM) [1]: 1.04 ± 1
4H MCP1 down | 1.78 | 1.78 | 1.78 |  | 1.78 |  |  |  | 
BE3C HLADR down | 1.3 | 0.845 | 0.845 | 1.31 ± 0.66 | 1.78 | 0.573 ± 0.39 |  |  | LOEC (log10 uM) [9]: 1.3
BE3C IL8 down | 1.3 | 0.845 | 0.845 | 1.3 |  | 0.845 |  | 0.239 ± 0.34 | LOEC (log10 uM) [9]: 1.78
BE3C IP10 down | 1.07 ± 0.32 | 0.845 | 0.845 | 1.3 | 1.78 | 0.301 |  |  | LOEC (log10 uM) [9]: 1.3
BE3C MMP1 down |  |  | 0.845 | 1.78 |  | 0.845 |  | 0.477 ± 0.68 | 
BE3C MMP1 up | 1.3 |  |  |  |  |  |  |  | LOEC (log10 uM) [9]: 1.3; LOEC (log10 uM) [11]: 1.48; LOEC (log10 uM) [1]: 1.78
BE3C tPA down | 1.3 | 1.78 | 0.845 | 1.3 |  | 0.845 | 0.801 ± 0.71 | 0.239 ± 0.34 | 
BF4T Eotaxin3 down | 0.845 | 1.3 | 0.845 | 1.3 |  | 0.301 |  |  | LOEC (log10 uM) [9]: 1.54 ± 0.34
BF4T IL8 up |  |  |  |  |  |  |  |  | LOEC (log10 uM) [11]: 1.48
BF4T MCP1 down | 1.3 | 1.78 | 1.07 ± 0.32 | 1.3 | 1.3 | 0.845 |  |  | 
BF4T tPA down | 1.3 | 1.78 | 0.845 | 1.54 ± 0.34 | 1.54 ± 0.34 | 0.845 | 1.07 ± 0.32 |  | 
BT PBMCCytotoxicity down |  |  |  |  |  |  |  | 0 | 
BT sIgG down | 1.54 ± 0.34 | 1.54 ± 0.34 | 1.78 |  | 1.78 |  | 1.78 |  | 
BT xIL2 down |  |  |  |  |  |  | 0.845 | 0 | 
BT xIL6 down |  | 1.78 | 1.78 |  | 1.78 |  |  | 0.716 ± 0.34 | 
BT xIL17F down | 1.54 ± 0.34 | 1.78 | 1.78 |  | 1.78 |  | 0.573 ± 0.39 |  | 
BT xTNFa down |  | 1.54 ± 0.34 |  |  | 1.78 |  | 1.54 ± 0.34 |  | 
BT xTNFa up |  |  |  |  |  |  |  |  | LOEC (log10 uM) [12]: 1.31 ± 0.66
CASM3C IL6 down |  |  |  |  |  |  | 1.07 ± 0.32 | 0.239 ± 0.34 | 
CASM3C MCP1 down |  |  |  |  |  |  |  | 0.477 ± 0.68 | 
CASM3C SAA up |  |  |  |  |  |  |  |  | LOEC (log10 uM) [13]: 1.54 ± 0.34; LOEC (log10 uM) [14]: 1.54 ± 0.34
CASM3C Thrombomodulin up | 1.78 | 1.78 |  |  |  |  |  |  | LOEC (log10 uM) [1]: 0.845
CASM3C VCAM1 down | 1.54 ± 0.34 | 1.78 | 1.78 |  |  |  | 0.573 ± 0.39 |  | LOEC (log10 uM) [1]: 1.31 ± 0.66
IMphg CD40 down | 1.78 | 1.3 | 1.78 | 1.78 |  |  |  |  | LOEC (log10 uM) [9]: 1.78

Test System | LOEC (log10 uM) [2] | LOEC (log10 uM) [3] | LOEC (log10 uM) [4] | LOEC (log10 uM) [5] | LOEC (log10 uM) [6] | LOEC (log10 uM) [7] | LOEC (log10 uM) [8] | LOEC (log10 uM) [10] | also measured
IMphg CD69 down | 1.78 |  | 1.31 ± 0.66 | 1.78 |  |  |  |  | LOEC (log10 uM) [9]: 1.78
IMphg ESelectin down | 1.54 ± 0.34 | 0.573 ± 0.39 | 1.3 |  |  |  | 1.78 | 0 | 
IMphg ESelectin up |  |  |  |  |  |  |  |  | LOEC (log10 uM) [9]: 1.78
IMphg IL8 down |  |  |  |  |  |  |  | 0.239 ± 0.34 | 
IMphg IL8 up | 1.78 |  |  | 1.07 ± 0.32 |  |  | 1.3 |  | LOEC (log10 uM) [1]: 0.573 ± 0.39
IMphg IL10 down |  | 1.54 ± 0.34 | 1.78 | 1.78 | 1.78 |  | 0.845 | 0 | LOEC (log10 uM) [13]: 1.78; LOEC (log10 uM) [9]: 1.3; LOEC (log10 uM) [11]: 1.48; LOEC (log10 uM) [15]: 1.31 ± 0.66; LOEC (log10 uM) [1]: 0.301
IMphg MCP1 down | 1.78 | 1.54 ± 0.34 | 1.3 |  |  |  |  | 0.477 | 
IMphg MIP1a down |  |  | 1.54 ± 0.34 |  |  |  |  | 0 | 
IMphg VCAM1 down | 1.78 | 1.78 | 1.78 | 1.78 |  |  | 1.78 | 1.48 | 
KF3CT IL1a down | 1.78 | 1.78 | 1.3 | 0.801 ± 0.71 |  | 0.845 |  |  | LOEC (log10 uM) [9]: 1.3
LPS IL1a down |  | 1.78 | 1.78 | 1.78 |  | -0.427 ± 0.39 |  |  | LOEC (log10 uM) [9]: 1.78
LPS IL8 up |  |  |  |  |  |  |  |  | LOEC (log10 uM) [13]: 1.54 ± 0.34; LOEC (log10 uM) [1]: 1.54 ± 0.34
LPS PGE2 down |  |  | 1.78 | 1.54 ± 0.34 |  |  |  | 1.22 ± 0.37 | LOEC (log10 uM) [9]: 1.78
LPS TNFa down |  | 1.78 | 1.78 |  |  | 0.845 |  | 0.954 | 
LPS Thrombomodulin up | 1.78 |  | 1.78 |  | 1.04 ± 1 |  |  |  | LOEC (log10 uM) [9]: 1.54 ± 0.34
MyoF ACTA1 down | 1.78 | 1.3 | 0.845 | 1.78 | 1.78 | 0.845 |  |  | 
SAg CD40 down | 1.3 | 1.3 | 1.78 | 1.78 | 1.78 | 0.845 |  |  | 
SAg Eselectin down | 1.78 | 1.78 | 1.78 |  | 1.78 |  | 1.3 | 0.716 ± 0.34 | 
SAg IL8 down | 1.78 | 1.78 | 1.3 | 1.78 | 1.78 |  | 1.78 |  | 
hDFCGF IP10 down | 0.845 | 0.573 ± 0.39 | 0.845 | 1.78 | 1.3 | 0.301 |  |  | 
hDFCGF ITAC down | 0.845 | 0.845 | 0.845 | 1.78 | 1.3 | 0.845 |  |  | 
hDFCGF MCP1 down | 1.78 | 1.3 | 0.845 |  | 1.54 ± 0.34 | 0.573 ± 0.39 |  |  | 
hDFCGF MCSF down | 1.3 | 1.3 | 0.845 |  | 1.54 ± 0.34 | 0.845 |  |  | 
hDFCGF MIG down | 1.3 | 0.573 ± 0.39 | 0.845 | 1.54 ± 0.34 | 0.845 | 0.845 |  |  | 
hDFCGF MMP1 down | 1.78 | 1.3 | 0.845 |  |  | 0.845 |  | 0.954 | 
hDFCGF Proliferation down | 1.3 | 1.3 | 0.845 | 1.54 ± 0.34 | 1.04 ± 1 | 0.301 | 1.78 |  | 
hDFCGF VCAM1 down | 0.301 | 1.07 ± 0.32 | 0.845 |  | 1.3 | 0.301 | 1.78 |  | 
